Measurements published in PubChem BioAssay AID192 (DTP/NCI, 2004).
Several values for one entry are separate records, joined by “and”; a condition that tells them apart may be missing. Equal values may be shown once. Toxic doses and inconclusive results are not listed.

System: BDF1 mice, B16 melanoma ip, median survival T/C
Experiment: NCI In Vivo Anticancer Drug Screen. Data for tumor model B16 Melanoma (intraperitoneal) in B6D2F1 (BDF1) mice
Conditions: endpoint: median survival time, higher = longer survival
In short: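 Antitumor activity is assessed in mice bearing a transplanted tumor, with survival or tumor size compared against vehicle-dosed controls and expressed as T/C.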

[1] = dose: 25.0 mg/kg/injection, schedule: Q01DX009 (ip), vehicle: Klucel (hydroxypropylcellulose) (HPC)
[2] = dose: 50.0 mg/kg/injection, schedule: Q01DX009 (ip), vehicle: Klucel (hydroxypropylcellulose) (HPC)
[3] = dose: 100.0 mg/kg/injection, schedule: Q01DX009 (ip), vehicle: Klucel (hydroxypropylcellulose) (HPC)
[4] = dose: 6.25 mg/kg/injection, schedule: Q01DX009 (ip), vehicle: saline with Tween-80
[5] = dose: 12.5 mg/kg/injection, schedule: Q01DX009 (ip), vehicle: saline with Tween-80
[6] = dose: 12.5 mg/kg/injection, schedule: Q01DX009 (ip), vehicle: Klucel (hydroxypropylcellulose) (HPC)
[7] = dose: 50.0 mg/kg/injection, schedule: Q01DX009 (ip), vehicle: saline
[8] = dose: 100.0 mg/kg/injection, schedule: Q01DX009 (ip), vehicle: saline
[9] = dose: 200.0 mg/kg/injection, schedule: Q01DX009 (ip), vehicle: saline
[10] = dose: 25.0 mg/kg/injection, schedule: Q01DX009 (ip), vehicle: saline with Tween-80
[11] = dose: 12.5 mg/kg/injection, schedule: Q01DX009 (ip), vehicle: saline
[12] = dose: 25.0 mg/kg/injection, schedule: Q01DX009 (ip), vehicle: saline
[13] = dose: 200.0 mg/kg/injection, schedule: Q01DX009 (ip), vehicle: Klucel (hydroxypropylcellulose) (HPC)
[14] = dose: 50.0 mg/kg/injection, schedule: Q01DX009 (ip), vehicle: saline with Tween-80
[15] = dose: 100.0 mg/kg/injection, schedule: Q01DX009 (ip), vehicle: saline with Tween-80
[16] = dose: 200.0 mg/kg/injection, schedule: Q01DX009 (ip), vehicle: saline with Tween-80

Nc1nc(SCc2ccccc2)c2ncn(C3CC(O)C(CO)O3)c2n1 (centres undefined)
T/C (dose: 4.25 mg/kg/injection, schedule: Q01DX009 (ip), vehicle: saline): 111 % of control | T/C (dose: 8.5 mg/kg/injection, schedule: Q01DX009 (ip), vehicle: saline): 113 % of control | T/C (dose: 17.0 mg/kg/injection, schedule: Q01DX009 (ip), vehicle: saline): 94 % of control | T/C (dose: 34.0 mg/kg/injection, schedule: Q01DX009 (ip), vehicle: saline): 93 % of control

Cc1nn(-c2ccccc2)c(N)c1C#N
T/C [1]: 100 % of control | T/C [2]: 93 % of control | T/C [3]: 103 % of control

O=C(O)CCCC1CCCCC1.[Cu+2]
T/C [4]: 100 % of control | T/C [5]: 97 % of control

O=C1C=CC(=O)O1 (tested in a mixture with another compound)
T/C [6]: 124 % of control | T/C (dose: 12.5 mg/kg/injection, schedule: Q04DX003 (ip), vehicle: saline): 111 % of control | T/C (dose: 18.75 mg/kg/injection, schedule: Q04DX003 (ip), vehicle: Klucel (hydroxypropylcellulose) (HPC)): 97 % of control | T/C (dose: 25.0 mg/kg/injection, schedule: Q04DX003 (ip), vehicle: saline): 96 % of control and 121 % of control | T/C (dose: 37.5 mg/kg/injection, schedule: Q04DX003 (ip), vehicle: Klucel (hydroxypropylcellulose) (HPC)): 150 % of control | T/C [2]: 159 % of control | T/C (dose: 50.0 mg/kg/injection, schedule: Q04DX003 (ip), vehicle: saline): 120 % of control and 121 % of control | T/C (dose: 75.0 mg/kg/injection, schedule: Q04DX003 (ip), vehicle: Klucel (hydroxypropylcellulose) (HPC)): 161 % of control | T/C [3]: 150 % of control | T/C (dose: 150.0 mg/kg/injection, schedule: Q04DX003 (ip), vehicle: Klucel (hydroxypropylcellulose) (HPC)): 108 % of control and 208 % of control | T/C (dose: 200.0 mg/kg/injection, schedule: Q01DX009 (ip), vehicle: other): 104 % of control | T/C (dose: 300.0 mg/kg/injection, schedule: Q04DX003 (ip), vehicle: Klucel (hydroxypropylcellulose) (HPC)): 152 % of control and 184 % of control | T/C (dose: 400.0 mg/kg/injection, schedule: Q04DX003 (ip), vehicle: saline): 101 % of control

Cc1ccc(CNc2ccc(Cl)cc2)cc1
T/C [2]: 91 % of control | T/C [3]: 94 % of control

C[N+](C)(C)c1nc(N)nc2c1ncn2C1OC(CO)C(O)C1O (centres undefined)
T/C [7]: 106 % of control | T/C [8]: 103 % of control | T/C [9]: 109 % of control

CCN(CC)C(=O)c1ccc(C(Cl)(Cl)Cl)cc1
T/C [4]: 95 % of control | T/C [5]: 98 % of control | T/C [10]: 90 % of control and 92 % of control

C=CC(=O)N1CN(C(=O)C=C)CN(C(=O)C=C)C1
T/C (dose: 0.78 mg/kg/injection, schedule: Q01DX009 (ip), vehicle: saline with Tween-80): 110 % of control | T/C (dose: 1.56 mg/kg/injection, schedule: Q01DX009 (ip), vehicle: saline with Tween-80): 114 % of control | T/C (dose: 3.12 mg/kg/injection, schedule: Q01DX009 (ip), vehicle: saline with Tween-80): 116 % of control

CCCC1CCC(=C2C(=O)CCC2=O)O1 (centres undefined)
T/C (dose: 3.13 mg/kg/injection, schedule: Q01DX009 (ip), vehicle: saline): 102 % of control | T/C (dose: 6.25 mg/kg/injection, schedule: Q01DX009 (ip), vehicle: saline): 100 % of control | T/C [11]: 91 % of control | T/C [12]: 89 % of control

O=C(Nc1ccc(C(=O)Nc2cc(S(=O)(=O)O)cc3cccc(S(=O)(=O)O)c23)cc1)Nc1ccc(C(=O)Nc2cc(S(=O)(=O)O)cc3cccc(S(=O)(=O)O)c23)cc1
T/C [2]: 108 % of control | T/C [3]: 113 % of control | T/C [13]: 100 % of control

COCCOC(=O)CCCCC(=O)OCCOC
T/C [8]: 118 % of control | T/C [9]: 106 % of control | T/C (dose: 400.0 mg/kg/injection, schedule: Q01DX009 (ip), vehicle: saline): 114 % of control

CCC1OC2(C)C(O)C(/C=C/C=C/C=C/c3oc(=O)cc(OC)c3C)OC1(C)C2OC(C)=O (centres undefined)
T/C (dose: 0.5 mg/kg/injection, schedule: Q01DX009 (ip), vehicle: Klucel (hydroxypropylcellulose) (HPC)): 94 % of control | T/C (dose: 1.0 mg/kg/injection, schedule: Q01DX009 (ip), vehicle: Klucel (hydroxypropylcellulose) (HPC)): 93 % of control | T/C (dose: 2.0 mg/kg/injection, schedule: Q01DX009 (ip), vehicle: Klucel (hydroxypropylcellulose) (HPC)): 94 % of control

O=C(Nc1nncs1)c1cccs1
T/C [5]: 101 % of control | T/C [10]: 109 % of control | T/C [14]: 121 % of control | T/C [15]: 109 % of control | T/C [16]: 106 % of control

CC(C)C(=O)NNCc1ccccc1
T/C (dose: 6.25 mg/kg/injection, schedule: Q01DX009 (ip), vehicle: Klucel (hydroxypropylcellulose) (HPC)): 95 % of control | T/C [6]: 97 % of control | T/C [1]: 95 % of control | T/C [2]: 90 % of control

CCOC(=O)CCC[P+](c1ccccc1)(c1ccccc1)c1ccccc1
T/C (dose: 5.0 mg/kg/injection, schedule: Q01DX009 (ip), vehicle: saline with Tween-80): 117 % of control | T/C (dose: 20.0 mg/kg/injection, schedule: Q01DX009 (ip), vehicle: saline with Tween-80): 117 % of control | T/C (dose: 40.0 mg/kg/injection, schedule: Q01DX009 (ip), vehicle: saline with Tween-80): 121 % of control | T/C (dose: 66.0 mg/kg/injection, schedule: Q01DX009 (ip), vehicle: saline with Tween-80): 116 % of control | T/C (dose: 80.0 mg/kg/injection, schedule: Q01DX009 (ip), vehicle: saline with Tween-80): 113 % of control | T/C [15]: 100 % of control | T/C (dose: 140.0 mg/kg/injection, schedule: Q01DX009 (ip), vehicle: saline with Tween-80): 112 % of control | T/C (dose: 160.0 mg/kg/injection, schedule: Q01DX009 (ip), vehicle: saline with Tween-80): 116 % of control | T/C (dose: 210.0 mg/kg/injection, schedule: Q01DX009 (ip), vehicle: saline with Tween-80): 104 % of control

Brc1ccc(C[N+]23CN4CN(CN(C4)C2)C3)cc1
T/C [3]: 121 % of control | T/C [13]: 115 % of control

N=C(N)Sc1ccccn1
T/C [11]: 95 % of control | T/C (dose: 12.5 mg/kg/injection, schedule: Q01DX009 (ip), vehicle: suspension in saline): 98 % of control | T/C [12]: 97 % of control | T/C (dose: 25.0 mg/kg/injection, schedule: Q01DX009 (ip), vehicle: suspension in saline): 100 % of control | T/C [7]: 100 % of control | T/C (dose: 50.0 mg/kg/injection, schedule: Q01DX009 (ip), vehicle: suspension in saline): 92 % of control | T/C [8]: 98 % of control | T/C (dose: 100.0 mg/kg/injection, schedule: Q01DX009 (ip), vehicle: suspension in saline): 92 % of control

CCC/C(C)=C(/C#N)CC
T/C [1]: 105 % of control | T/C [2]: 103 % of control | T/C [3]: 109 % of control

NC(=O)CC(NC(=O)CCl)C(=O)O (centres undefined)
T/C [14]: 98 % of control | T/C [15]: 99 % of control

Cc1ccc(S(=O)(=O)Nc2c([N+](=O)[O-])cc([N+](=O)[O-])c3ccccc23)cc1
T/C [4]: 107 % of control | T/C [5]: 100 % of control | T/C [10]: 112 % of control

COCCOC1=C(N2CC2)C(=O)C(OCCOC)=C(N2CC2)C1=O
T/C (dose: 0.5 mg/kg/injection, schedule: Q01DX009 (ip), vehicle: saline): 102 % of control and 123 % of control | T/C (dose: 1.0 mg/kg/injection, schedule: Q01DX009 (ip), vehicle: saline): 110 % of control | T/C (dose: 2.0 mg/kg/injection, schedule: Q01DX009 (ip), vehicle: saline): 94 % of control | T/C (dose: 4.0 mg/kg/injection, schedule: Q01DX009 (ip), vehicle: saline): 150 % of control

Cc1c(C)c2c(c(C)c1O)CCC(C)(CCCC(C)CCCC(C)CCCC(C)C)O2 (centres undefined)
T/C [15]: 95 % of control | T/C [16]: 90 % of control

O=C(CC(=Nc1ccccc1)c1ccccc1)c1ccccc1.O=C(CC(=Nc1ccccc1)c1ccccc1)c1ccccc1.[Cu]
T/C (dose: 6.25 mg/kg/injection, schedule: Q04DX003 (ip), vehicle: saline with Tween-80): 93 % of control | T/C (dose: 12.5 mg/kg/injection, schedule: Q04DX003 (ip), vehicle: saline with Tween-80): 86 % of control | T/C (dose: 25.0 mg/kg/injection, schedule: Q04DX003 (ip), vehicle: saline with Tween-80): 91 % of control

CC(Br)C(=O)NC(CC(N)=O)C(=O)O (centres undefined)
T/C [14]: 91 % of control | T/C [15]: 104 % of control | T/C [16]: 93 % of control

C(COCC1CO1)OCC1CO1 (centres undefined)
T/C [12]: 91 % of control | T/C [7]: 113 % of control | T/C [8]: 119 % of control

COc1ccc2cc1Oc1ccc(cc1)C[C@H]1c3cc(c(OC)cc3CCN1C)Oc1c(O)c(OC)cc3c1[C@H](C2)N(C)CC3
T/C (dose: 25.0 mg/kg/injection, schedule: Q01DX009 (ip), vehicle: acid diluted with saline): 116 % of control | T/C (dose: 50.0 mg/kg/injection, schedule: Q01DX009 (ip), vehicle: acid diluted with saline): 105 % of control
